One block for each compound: values may come before it.
How the values were obtained:
CFP-DH4 (A1cOX) = assay: HbA1c detection reaction completed with excess A1cOX (Example 4); assay type: biochemical; conditions: 0.04% (w/v) compound, 5.3 mg/ml CFP-DH4 (excess), blood cells 10.4% HbA1c, pH 6.5, 37° C.; for ΔA9 min: change in A694-A751 9 minutes after mixing sample with first reagent; for ΔA10 min: change in A694-A751 10 minutes after mixing sample with first reagent, defined as ΔA100%
Method: In this Example, the amount of change in absorbance when an excess amount of A1cOX is used and HbA1c detection reaction was completed is determined.
A reagent for HbA1c measurement having the following composition was prepared, and the measurement of HbA1c was carried out using Bio Majesty JCA-BMI650 (manufactured by JEOL Ltd.).
Blood cells (10.4% HbA1c (NGSP value))
30 mM MOPS-NaOH buffer solution, pH 6.5
0.2% (w/v) n-dodecyl-β-D-maltoside (manufactured by Dojindo Laboratories)
(§1) 10 U/ml peroxidase PEO-301 (Toyobo Co., Ltd.)
0.023 mM 10-(carboxymethylaminocarbonyl)-3,7-bis(dimethylamino)phenothiazine sodium (DA-67, manufactured by Wako Pure Chemical Industries, Ltd.)
0.04% (w/v) of the compound of Comparative Example 2 (Wako Pure Chemical Industries, Ltd.), any one compound of the present invention (all from Tokyo Chemical Industry Co., Ltd. except for Acid Yellow 34 from MP Biomedicals, LLC), or compound-free (Comparative Example 1) ion-exchange water as shown in Table 1 (Second Reagent-A) 10 mM MOPS-NaOH buffer solution, pH 6.5 5.3 mg/ml CFP-DH4 (A cOX)
8 μl of the sample diluted 51-fold with ion-exchange water was added to 96 μl of the first reagent-A, and the mixture was incubated at 37° C. for 5 minutes. Then, 24 μl of the second reagent-A was added thereto, and the quantitative reaction of hydrogen peroxide resulting from the oxidation of the β-chain amino terminus of HbA1c was allowed to progress at 37° C. for 5 minutes. The absorbance (A694 and A751) of the reaction solution for light at wavelengths of 694 nm and 751 nm was measured over time for 10 minutes after the mixing of the diluted sample with the first reagent-A to determine the value subtracting of A751 from A694, i.e., the value A694/751. Subsequently, ΔA was calculated by subtracting, from A694/751, the value of (104/128) times A694/751 4.8 minutes after mixing the diluted sample with the first reagent-A. Incidentally, 4.8 minutes after the mixing of the diluted sample with the first reagent-A represents the time immediately before the addition of the second reagent-A. ΔA 9 minutes and 10 minutes after the mixing of the diluted sample with the first reagent (ΔA9min and ΔA10min) are shown in Table 1.
(§2) In other words, it can be recognized that the quantitative reaction of HbA1c, i.e., the quantitative reaction of hydrogen peroxide resulting from the oxidation of HbA1c, was completed in 10 minutes after the mixing of the diluted sample with the first reagent-A. Accordingly, in Examples 4 and 5, ΔA10min in each Comparative Example or the present invention was defined as ΔA when 100% of the quantitative reaction of HbA1c progressed under each condition (ΔA100%).

[1] = test system: fructosyl amino acid oxidase (FAOD-E); assay: Fructosyl valine detection reaction completed with excess fructosyl amino acid oxidase (Example 8); assay type: biochemical; conditions: 0.04% (w/v) compound, 21.4 U/ml FAOD-E (excess), 32 μM fructosyl valine, pH 8.0, 37° C.; for ΔA9 min: change in A694-A751 9 minutes after mixing; for ΔA10 min: change in A694-A751 10 minutes after mixing, defined as ΔA100%
Method: In this Example, the amount of change in absorbance is determined when the detection reaction of the substrate fructosyl valine was completed using an excess amount of fructosyl amino acid oxidase (FAOD-E), which is an oxidase.
A reagent for fructosyl valine measurement having the following composition was prepared, and the measurement of fructosyl valine using fructosyl amino acid oxidase was carried out using Bio Majesty JCA-BM 1650 (manufactured by JEOL Ltd.).
32 μM fructosyl valine (manufactured by Kikkoman Biochemifa Company)
30 mM MOPS-NaOH buffer solution, pH 8.0
0.2% (v/v) NYMEEN F-215 (manufactured by NOF Corp.)
as §1
0.023 mM 10-(carboxymethylaminocarbonyl)-3,7-bis(dimethylamino)phenothiazine sodium
(DA-67, manufactured by Wako Pure Chemical Industries, Ltd.)
0.04% (w/v) of the compound of Comparative Example 2, any one compound of the present invention, or compound-free (Comparative Example 1) ion-exchange water as shown in Table 1
10 mM MOPS-NaOH buffer solution, pH 8.0
21.4 U/ml FAOD-E (manufactured by Kikkoman Biochemifa Company)
8 μl of the sample was added to 96 μl of the first reagent-C, and the mixture was incubated at 37° C. for 5 minutes. Then, 24 μl of the second reagent-E was added thereto, and the quantitative reaction of hydrogen peroxide resulting from the oxidation of fructosyl valine was allowed to progress at 37° C. for 5 minutes. The absorbance ([…] and A751) of the reaction solution for light at wavelengths of 694 nm and 751 nm was measured over time for 10 minutes after the mixing of the sample with the first reagent-C to determine the value of subtraction of A751 from A694, i.e., the value A694/751. Subsequently, ΔA was calculated by subtracting, from A694/751, the value of (104/128) times A694/751 4.8 minutes after the mixing of the sample with the first reagent-C. Incidentally, 4.8 minutes after the mixing of the sample with the first reagent-C represents the time immediately before the addition of the second reagent-E. ΔA 9 minutes and 10 minutes after the mixing of the diluted sample with the first reagent-C (ΔA9min and ΔA10min) are shown in Table 5.
as §2, with “fructosyl valine,” for “HbA1c,”, “reagent-C.” for “reagent-A.”, “8” for “4”, “9,” for “5,”

- ΔA9 min [1]: 0.049
- ΔA10 min [1]: 0.051
Compound: O=C([O-])c1cc(N=Nc2ccc([N+](=O)[O-])cc2)ccc1O.[Na+] [Mordant Orange 1]
- ΔA9 min (CFP-DH4 (A1cOX)): 0.016
- ΔA10 min (CFP-DH4 (A1cOX)): 0.016

Compound: O=C(O)c1cc(N=Nc2ccc3cc(S(=O)(=O)O)ccc3c2)ccc1O.[Na] [Chrome Yellow]
- ΔA9 min (CFP-DH4 (A1cOX)): 0.024
- ΔA10 min (CFP-DH4 (A1cOX)): 0.024
- ΔA9 min [1]: 0.066
- ΔA10 min [1]: 0.067

Compound: Acid Red 151
- ΔA9 min (CFP-DH4 (A1cOX)): 0.014
- ΔA10 min (CFP-DH4 (A1cOX)): 0.014

- ΔA9 min [1]: 0.062
- ΔA10 min [1]: 0.061
Compound: COc1cc(N=Nc2ccc(N)cc2)c(C)cc1N [Disperse Diazo Black 3BF]

Compound: COc1cc(N=Nc2cccc(S(=O)(=O)[O-])c2)ccc1NC(=O)Nc1ccc(N=Nc2ccc(O)c(C(=O)[O-])c2)cc1.[Na+].[Na+] [Direct Yellow 44]
- ΔA9 min (CFP-DH4 (A1cOX)): 0.017
- ΔA10 min (CFP-DH4 (A1cOX)): 0.017

Compound: O=S(=O)([O-])c1cccc(N=Nc2ccc(Nc3ccccc3)cc2)c1.[Na+] [Acid Yellow 36]
- ΔA9 min (CFP-DH4 (A1cOX)): 0.011
- ΔA10 min (CFP-DH4 (A1cOX)): 0.011

Compound: O=C([O-])c1cc(N=Nc2cccc([N+](=O)[O-])c2)ccc1O.[Na+] [Alizarin Yellow GG]
- ΔA9 min (CFP-DH4 (A1cOX)): 0.016
- ΔA10 min (CFP-DH4 (A1cOX)): 0.016
- ΔA9 min [1]: 0.044
- ΔA10 min [1]: 0.046

Compound: Cc1nn(-c2cc(S(=O)(=O)[O-])ccc2Cl)c(O)c1N=Nc1ccccc1.[Na+] [Acid Yellow 34]
- ΔA9 min (CFP-DH4 (A1cOX)): 0.011
- ΔA10 min (CFP-DH4 (A1cOX)): 0.011

Compound: Xylene Fast Yellow 2G
- ΔA9 min (CFP-DH4 (A1cOX)): 0.015
- ΔA10 min (CFP-DH4 (A1cOX)): 0.015
